Measured values: US7598028B2, “Compositions and methods for detecting and treating prostate disorders” (The Regents of the University of Michigan, priority 2006, dated 2009)

Legend:
STAT3 = test: Western blot, STAT3 phosphorylation in N15C6 cells; type: cell-based, human; conditions: 10 pM, 100 pM or 1 nM CXCL5
Protocol: Western Blot and Protein Analysis. Cells were lysed, proteins resolved by electrophoresis, and electroblotting was carried out as described previously except that 20 ug protein was electrophoresed per gel lane for N15C6 cells and 100 ug protein for LNCaP cells (see, e.g., Begley L, et al., Aging Cell. 2005 December; 4(6):291-8; Begley L A, et al., J Biol. Chem. 2007 Sep. 14; 282(37):26767-74; each herein incorporated by reference in their entireties). Proteins were detected using antibodies against phospho-ERK½ (Cell Signaling #9101), total ERK½ (Cell Signaling, #9102), phospho-p65, (Rockland #100-401-264), total p65 (Rockland #100-4165), STAT3 (9139), phospho-STAT3 (9138), beta-actin (Santa Cruz #sc-1615), or tubulin (Upstate, #DM1A) in conjunction with an ECL detection system. Secondary antibodies included goat anti-rabbit (Cell Signaling, #7074) and goat anti-mouse (Santa Cruz, #SC-2005), and both were used at a 1:5000 concentration. Immunoblots shown are representative of triplicate experiments. Densitometric quantitation of immunoblot films was accomplished by scanning the original films and converting the .tiff files to grayscale. Images were inverted, and mean band intensities were measured using ImageJ (www, followed by, .nih.gov). The mean intensity of adjacent background was also measured for each band and subtracted from band intensity.

[1] = test system: N1 prostate fibroblast cells; test: Proliferation assay, add back, N1 fibroblasts; type: cell-based, human; conditions: add back of exogenous chemokine, 96 hours
Source text: FIG. 6C describes how CXCL1, CXCL5, CXCL6, and CXCL12 stimulate N15C6 prostate epithelial cell proliferation, N1 prostate fibroblast cell proliferation, and LNCaP prostate epithelial cell proliferation compared to serum-free (SF HIE) media alone. “Add back” assays were next performed to determine whether the addition of exogenous CXCL1, CXCL5, CXCL6, and CXCL12 to defined, serum-free media induced […] or LNCaP prostate epithelial or N1 fibroblast cell proliferation. For these and all experiments utilizing N15C6 and LNCaP cells, the N15C6 and N1 cells were used between passage 35-45, and LNCaP cells between passages 25-35, for consistency. All recombinant CXC proteins were obtained from R&D systems (e.g., CXCL1, #275-GR, CXCL5, #254-X; CXCL6, #333-GC, and SDF1 alpha/CXCL12, #350-NS). Cells were plated at 50,000 cells/well in triplicate, treated for 96 hours, and counted. […] Moreover, the concentrations for CXCL1, CXCL5, CXCL6 and CXCL12 observed to be growth-stimulatory for prostate epithelial cells were similar to those secreted into the media by older prostate stromal fibroblasts (see, e.g., FIGS. 6A and 6B).

Q: What does the source list for “CXCL5: recombinant human CXCL5 (R&D Systems, 254-X), CXC-type chemokine”?
A: STAT3 phosphorylation (STAT3): rapidly and transiently phosphorylated; cell proliferation compared to serum-free (SF HIE) media alone [1]: stimulate
